Measured values as given in patent US20110071180A1, “SUB-TYPE SELECTIVE AMIDES OF DIAZABICYCLOALKANES” (Targacept, Inc., priority 2008, published 2011).
Read-outs that look alike come from different tables or passages of the source.

Legend:
α7 nAChR subtype = target: T1, α7 nAChR subtype (Rattus norvegicus, UniProt Q05941); experiment: Radioligand binding, [3H]MLA, rat hippocampus membranes; conditions: for inhibition at 5 µM: read-out: α7 high through-put screening (HTS) result
T1 construct: The hippocampus was removed and placed in 10 volumes (weight:volume) of ice-cold preparative buffer; from tissue; host or cells: rat hippocampus membranes (female Sprague-Dawley)
Method: Rats (female, Sprague-Dawley), weighing 150-250 g, were maintained on a 12 h light/dark cycle and were allowed free access to water and food supplied by PMI Nutrition International, Inc. Animals were anesthetized with 70% CO2, then decapitated. Brains were removed and placed on an ice-cold platform. The hippocampus was removed and placed in 10 volumes (weight:volume) of ice-cold preparative buffer (137 mM NaCl, 10.7 mM KCl, 5.8 mM KH2PO4, 8 mM Na2HPO4, 20 mM HEPES (free acid), 5 mM iodoacetamide, 1.6 mM EDTA, pH 7.4); PMSF, dissolved in methanol to a final concentration of 100 μM, was added and the tissue suspension was homogenized by Polytron. The homogenate was centrifuged at 18,000×g for 20 min at 4° C. and the resulting pellet was re-suspended in 10 volumes of ice-cold water. After 60 min incubation on ice, a new pellet was collected by centrifugation at 18,000×g for 20 min at 4° C. The final pellet was re-suspended in 10 volumes of buffer and stored at −20° C. On the day of the assay, tissue was thawed, centrifuged at 18,000×g for 20 min, and then re-suspended in ice-cold PBS (Dulbecco's Phosphate Buffered Saline, 138 mM NaCl, 2.67 mM KCl, 1.47 mM KH2PO4, 8.1 mM Na2HPO4, 0.9 mM CaCl2, 0.5 mM MgCl2, Invitrogen/Gibco, pH 7.4) to a final concentration of approximately 2 mg protein/mL. Protein was determined by the method of Lowry et al., J. Biol. Chem. 193: 265 (1951), using bovine serum albumin as the standard.
The binding of [^3H]MLA was measured using a modification of the methods of Davies et al., Neuropharmacol. 38: 679 (1999). [^3H]MLA (Specific Activity=25-35 Ci/mmol) was obtained from Tocris. The binding of [^3H]MLA was determined using a 2 h incubation at 21° C. Incubations were conducted in 48-well micro-titre plates and contained about 200 μg of protein per well in a final incubation volume of 300 μL. The incubation buffer was PBS and the final concentration of [^3H]MLA was 5 nM. The binding reaction was terminated by filtration of the protein containing bound ligand onto glass fiber filters (GF/B, Brandel) using a Brandel Tissue Harvester at room temperature. Filters were soaked in de-ionized water containing 0.33% polyethyleneimine to reduce non-specific binding. Each filter was washed with PBS (3×1 mL) at room temperature. Non-specific binding was determined by inclusion of 50 μM non-radioactive MLA in selected wells.
The inhibition of [^3H]MLA binding by test compounds was determined by including seven different concentrations of the test compound in selected wells. Each concentration was replicated in triplicate. IC50 values were estimated as the concentration of compound that inhibited 50 percent of specific [^3H]MLA binding. Inhibition constants (Ki values), reported in nM, were calculated from the IC50 values using the method of Cheng et al., Biochem. Pharmacol. 22: 3099-3108 (1973).

human α4β2 nAChR subtype = target: T2, human α4β2 nAChR subtype (Homo sapiens, UniProt P17787+P43681); experiment: Radioligand binding, [3H]nicotine, membranes from SH-EP1/human α4β2 clonal cells; conditions: [3H]nicotine 5 nM, SH-EP1/human α4β2 cell membranes
T2 construct: expressed in transfected cells; host or cells: SH-EP1 clonal cells expressing human α4β2
Method: Preparation of membranes from SH-EP1/human α4β2 clonal cells: Cell pellets from 40 150 mm culture dishes were pooled, and homogenized by Polytron (Kinematica GmbH, Switzerland) in 20 milliliters of ice-cold preparative buffer. The homogenate was centrifuged at 48,000 g for 20 minutes at 4° C. The resulting pellet was re-suspended in 20 mL of ice-cold preparative buffer and stored at −20° C.
(§1) On the day of the assay, the frozen membranes were thawed and spun at 48,000×g for 20 min. The supernatant was decanted and discarded. The pellet was resuspended in Dulbecco's phosphate buffered saline (PBS, Life Technologies) pH 7.4 and homogenized with the Polytron for 6 seconds. Protein concentrations were determined using a Pierce BCA Protein Assay Kit, with bovine serum albumin as the standard (Pierce Chemical Company, Rockford, Ill.).
(§2) Membrane preparations (approximately 50 μg for human and 200-300 μg protein for rat α4β2) were incubated in PBS (50 μL and 100 μL respectively) in the presence of competitor compound (0.01 nM to 100 μM) and 5 nM [^3H]nicotine for 2-3 hours on ice. Incubation was terminated by rapid filtration on a multi-manifold tissue harvester (Brandel, Gaithersburg, Md.) using GF/B filters presoaked in 0.33% polyethyleneimine (w/v) to reduce non-specific binding. Tissue was rinsed 3 times in PBS, pH 7.4. Scintillation fluid was added to filters containing the washed tissue and allowed to equilibrate. Filters were then counted to determine radioactivity bound to the membranes by liquid scintillation counting (2200CA Tri-Carb LSC, Packard Instruments, 50% efficiency or Wallac Trilux 1450 MicroBeta, 40% efficiency, Perkin Elmer).
(§3) Data were expressed as disintegrations per minute (DPMs). Within each assay, each point had 2-3 replicates. The replicates for each point were averaged and plotted against the log of the drug concentration. IC50, which is the concentration of the compound that produces 50% inhibition of binding, was determined by least squares non-linear regression. Ki values were calculated using the Cheng-Prussof equation (1973): […]

rat α4β2 nAChR subtype = target: T3, rat α4β2 nAChR subtype (Rattus norvegicus, UniProt P09483+P12390); experiment: Radioligand binding, [3H]nicotine, rat cortex membranes; conditions: [3H]nicotine 5 nM
T3 construct: The cerebral cortex was removed and placed in 20 volumes (weight:volume) of ice-cold preparative buffer; from tissue; host or cells: rat cerebral cortex membranes (female Sprague-Dawley)
Method: Preparation of Membranes from Rat Cortex: Rats (Female, Sprague-Dawley), weighing 150-250 g, were maintained on a 12 h light/dark cycle and were allowed free access to water and food supplied by PMI Nutrition International, Inc. Animals were anesthetized with 70% CO2, and then decapitated. Brains were removed and placed on an ice-cold platform. The cerebral cortex was removed and placed in 20 volumes (weight:volume) of ice-cold preparative buffer (137 mM NaCl, 10.7 mM KCl, 5.8 mM KH2PO4, 8 mM Na2HPO4, 20 mM HEPES (free acid), 5 mM iodoacetamide, 1.6 mM EDTA, pH 7.4); PMSF, dissolved in methanol to a final concentration of 100 μM, was added and the suspension was homogenized by Polytron. The homogenate was centrifuged at 18,000×g for 20 min at 4° C. and the resulting pellet was re-suspended in 20 volumes of ice-cold water. After 60 min incubation on ice, a new pellet was collected by centrifugation at 18,000×g for 20 min at 4° C. The final pellet was re-suspended in 10 volumes of buffer and stored at −20° C.
as §1, §2, §3

[1] = [3H]MLA 5 nM, rat hippocampus membranes, read-out: α7 Ki

T2 sequence (P43681 29-627 limits assumed): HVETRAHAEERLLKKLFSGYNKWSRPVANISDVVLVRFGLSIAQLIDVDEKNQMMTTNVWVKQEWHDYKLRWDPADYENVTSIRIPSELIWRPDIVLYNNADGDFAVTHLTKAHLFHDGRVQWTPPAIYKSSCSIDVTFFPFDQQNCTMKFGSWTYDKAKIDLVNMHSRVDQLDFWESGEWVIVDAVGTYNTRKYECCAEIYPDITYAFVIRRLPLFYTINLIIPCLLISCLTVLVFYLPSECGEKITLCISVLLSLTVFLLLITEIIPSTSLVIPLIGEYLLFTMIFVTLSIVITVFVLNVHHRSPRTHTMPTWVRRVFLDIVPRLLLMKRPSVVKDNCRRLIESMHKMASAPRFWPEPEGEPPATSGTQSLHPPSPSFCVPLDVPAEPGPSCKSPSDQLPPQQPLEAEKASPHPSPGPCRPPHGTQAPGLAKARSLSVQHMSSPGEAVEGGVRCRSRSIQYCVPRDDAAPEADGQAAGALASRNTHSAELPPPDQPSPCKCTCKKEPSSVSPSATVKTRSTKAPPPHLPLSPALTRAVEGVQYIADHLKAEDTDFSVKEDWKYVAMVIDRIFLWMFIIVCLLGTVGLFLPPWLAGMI
T2 sequence (P17787 26-502): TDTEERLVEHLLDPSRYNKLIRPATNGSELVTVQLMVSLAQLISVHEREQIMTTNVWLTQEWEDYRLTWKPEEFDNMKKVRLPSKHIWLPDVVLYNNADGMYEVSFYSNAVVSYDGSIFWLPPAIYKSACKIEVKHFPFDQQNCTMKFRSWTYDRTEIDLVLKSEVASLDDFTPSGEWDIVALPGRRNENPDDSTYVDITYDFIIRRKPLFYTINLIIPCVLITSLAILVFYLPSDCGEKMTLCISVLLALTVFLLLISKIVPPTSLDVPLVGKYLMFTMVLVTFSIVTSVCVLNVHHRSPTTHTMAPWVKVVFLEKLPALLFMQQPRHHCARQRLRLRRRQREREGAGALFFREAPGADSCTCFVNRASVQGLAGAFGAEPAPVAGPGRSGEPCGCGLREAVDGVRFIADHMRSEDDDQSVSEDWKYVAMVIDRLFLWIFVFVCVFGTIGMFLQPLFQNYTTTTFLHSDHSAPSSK
T3 sequence (P09483 31-630): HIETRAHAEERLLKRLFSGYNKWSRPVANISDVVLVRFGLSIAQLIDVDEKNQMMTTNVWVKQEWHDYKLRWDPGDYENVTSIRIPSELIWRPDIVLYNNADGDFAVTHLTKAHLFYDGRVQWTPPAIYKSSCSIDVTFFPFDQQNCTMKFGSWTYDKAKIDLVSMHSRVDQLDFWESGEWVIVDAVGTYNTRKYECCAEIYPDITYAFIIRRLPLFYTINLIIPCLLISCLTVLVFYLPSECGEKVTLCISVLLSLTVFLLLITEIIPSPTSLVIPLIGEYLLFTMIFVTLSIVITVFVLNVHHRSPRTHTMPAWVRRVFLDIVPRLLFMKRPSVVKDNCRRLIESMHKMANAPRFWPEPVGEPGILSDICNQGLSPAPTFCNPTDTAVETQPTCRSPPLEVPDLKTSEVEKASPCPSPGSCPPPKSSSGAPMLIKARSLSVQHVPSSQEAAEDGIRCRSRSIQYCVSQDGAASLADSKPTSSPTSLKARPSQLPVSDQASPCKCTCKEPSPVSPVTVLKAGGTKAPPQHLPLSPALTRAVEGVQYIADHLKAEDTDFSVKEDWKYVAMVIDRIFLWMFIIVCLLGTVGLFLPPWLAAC
T3 sequence (P12390 25-500): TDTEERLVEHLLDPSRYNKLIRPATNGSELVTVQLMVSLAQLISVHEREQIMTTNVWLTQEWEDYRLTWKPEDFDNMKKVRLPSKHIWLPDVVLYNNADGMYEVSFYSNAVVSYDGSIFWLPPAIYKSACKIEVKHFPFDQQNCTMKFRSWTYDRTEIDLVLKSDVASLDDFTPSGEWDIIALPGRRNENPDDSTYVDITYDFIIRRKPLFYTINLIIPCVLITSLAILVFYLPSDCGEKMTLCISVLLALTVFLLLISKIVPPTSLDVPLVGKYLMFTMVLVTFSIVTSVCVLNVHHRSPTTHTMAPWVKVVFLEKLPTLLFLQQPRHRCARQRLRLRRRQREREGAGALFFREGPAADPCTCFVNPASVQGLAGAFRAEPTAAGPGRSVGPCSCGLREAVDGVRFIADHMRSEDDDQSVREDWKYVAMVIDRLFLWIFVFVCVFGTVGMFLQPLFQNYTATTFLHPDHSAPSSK
T1 sequence (Q05941 23-502): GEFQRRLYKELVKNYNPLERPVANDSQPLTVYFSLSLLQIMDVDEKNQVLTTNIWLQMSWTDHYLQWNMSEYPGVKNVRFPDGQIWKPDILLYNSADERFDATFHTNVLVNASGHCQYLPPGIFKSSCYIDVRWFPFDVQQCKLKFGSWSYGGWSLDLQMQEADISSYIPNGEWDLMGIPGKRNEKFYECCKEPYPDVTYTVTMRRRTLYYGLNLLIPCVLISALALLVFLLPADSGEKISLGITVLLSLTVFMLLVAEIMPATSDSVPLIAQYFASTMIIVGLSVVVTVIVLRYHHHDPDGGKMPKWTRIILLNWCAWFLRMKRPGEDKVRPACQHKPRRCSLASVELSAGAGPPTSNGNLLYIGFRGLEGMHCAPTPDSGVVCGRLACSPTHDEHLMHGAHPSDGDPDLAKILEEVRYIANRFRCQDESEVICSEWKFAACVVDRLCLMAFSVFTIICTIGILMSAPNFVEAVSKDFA

| SMILES | Ki (α7 nAChR subtype; [1]) [nM] | Ki (human α4β2 nAChR subtype) [nM] | Ki (rat α4β2 nAChR subtype) [nM] | inhibition at 5 µM (α7 nAChR subtype) [%] | Ki (α7 nAChR subtype; α7 Ki) [nM] |
| --- | --- | --- | --- | --- | --- |
| COCC(=O)N1CC2CNCC(C2)C1 [Example 10-61] | 1470 | 38.8 | 50 | – | – |
| O=C(Cn1ccnc1)N1CC2CNCC(C2)C1 [Example 10-99] | – | 821 | 1320 | < 50 | – |
| O=C([C@@H]1CC2C=CC1C2)N1CC2CNCC(C2)C1 (stereo partly drawn) [Example 10-95] | – | 2.2 | 4.9 | < 50 | – |
| O=C(CO)N1CC2CNCC2C1 (stereo not drawn) [Example 10-27] | – | 202 | 264 | < 50 | – |
| O=C([C@@H]1CC2C=CC1C2)N1CC2CNCC2C1 (stereo partly drawn) [Example 10-44] | – | 3.4 | 9.3 | < 50 | – |
| O=C(C1CCC1)N1CC2CNCC(C2)C1 [Example 10-75] | 70 | 1.4 | 1.6 | – | – |
| O=C(C1CC=CCC1)N1CC2CNCC(C2)C1 (stereo not drawn) [Example 10-98] | 794 | 134 | 198 | – | – |
| O=C([C@H]1C[C@H]1F)N1CC2CNCC(C2)C1 [Example 10-78] | – | 1.7 | 2.9 | – | 397 |
| O=C(C1CC(F)C1)N1CC2CNCC(C2)C1 (stereo not drawn) [Example 10-82] | 1040 | 2.9 | 1.4 | – | – |
| CCC(=O)N1CC2CNCC2C1 (stereo not drawn) [Example 10-14] | – | 8.5 | 16.9 | < 50 | – |
| O=C(C1=CCCC1)N1CC2CNCC(C2)C1 [Example 10-58] | – | 468 | 177 | < 50 | – |
| O=C(C1CC12CCC2)N1CC2CNCC(C2)C1 (stereo not drawn) [Example 10-76] | 680 | 1.1 | 1.6 | – | – |
| O=C(C(F)F)N1CC2CNCC(C2)C1 [Example 10-59] | 295 | 24.6 | 1.7 | – | – |
| CC(C)C(=O)N1CC2CNCC2C1 (stereo not drawn) [Example 10-31] | – | 28.6 | 56 | < 50 | – |
| O=C(C1=CCCC1)N1CC2CNCC2C1 (stereo not drawn) [Example 10-8] | – | 296 | 116 | < 50 | – |
| O=C(C1CC=CCC1c1cccnc1)N1CC2CNCC2C1 (stereo not drawn) [Example 10-48] | – | 345 | 999 | < 50 | – |
| CC1(C)C(C(=O)N2CC3CNCC(C3)C2)C1(C)C [Example 10-73] | – | 28.2 | 119 | < 50 | – |
| CC1(C)CC1C(=O)N1CC2CNCC2C1 (stereo not drawn) [Example 10-19] | – | 16.9 | 7.7 | < 50 | – |
| O=C(C1CC=CCC1c1cccnc1)N1CC2CNCC(C2)C1 (stereo not drawn) [Example 10-101] | – | 69.6 | 602 | < 50 | – |
| CC1(C)CC1C(=O)N1CC2CNCC(C2)C1 (stereo not drawn) [Example 10-69] | 377 | 1 | 1.5 | – | – |
| CC(C)C(=O)N1CC2CNCC(C2)C1 [Example 10-81] | 645 | 44.4 | 102 | – | – |
| CC(C)(F)C(=O)N1CC2CNCC2C1 (stereo not drawn) [Example 10-41] | – | 26.9 | 12 | < 50 | – |
| N#CC1(C(=O)N2CC3CNCC3C2)CC1 (stereo not drawn) [Example 10-24] | – | 274 | 572 | < 50 | – |
| O=C(C1CC12CCC2)N1CC2CNCC2C1 (stereo not drawn) [Example 10-26] | – | 4 | 6.3 | < 50 | – |
| O=C(C1CC1(F)F)N1CC2CNCC(C2)C1 (stereo not drawn) [Example 10-68] | 142 | 1.1 | 1.2 | – | – |
| CC(=O)N1CC2CNCC(C2)C1 [Example 10-55] | 3280 | 20.2 | 18.7 | – | – |
| O=C(C1C2CCCCC21)N1CC2CNCC2C1 (stereo not drawn) [Example 10-45] | 508 | 8.6 | 26 | – | – |
| CC1C(C)C1C(=O)N1CC2CNCC2C1 (stereo not drawn) [Example 10-52] | – | 12.2 | 133 | < 50 | – |
| CC(F)(F)C(=O)N1CC2CNCC(C2)C1 [Example 10-90] | – | 9.2 | 14.6 | < 50 | – |
